Target: T1, human oxytocin receptor (Homo sapiens, UniProt P30559)
T1 construct: host or cells: CHO cells (pcDNA3.1 vector)
T1 sequence (P30559 1-389): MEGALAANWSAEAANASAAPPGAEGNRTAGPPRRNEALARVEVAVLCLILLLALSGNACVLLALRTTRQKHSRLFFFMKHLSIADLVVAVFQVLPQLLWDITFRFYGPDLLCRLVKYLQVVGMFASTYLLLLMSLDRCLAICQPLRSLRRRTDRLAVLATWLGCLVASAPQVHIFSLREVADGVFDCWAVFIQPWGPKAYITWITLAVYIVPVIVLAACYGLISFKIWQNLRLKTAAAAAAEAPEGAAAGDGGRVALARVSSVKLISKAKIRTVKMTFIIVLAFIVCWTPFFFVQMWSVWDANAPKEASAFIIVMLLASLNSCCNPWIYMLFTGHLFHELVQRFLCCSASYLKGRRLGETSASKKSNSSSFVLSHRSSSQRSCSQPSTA
Assay: Oxytocin binding in Chinese Hamster Ovary cell membranes expressing human oxytocin receptors
Settings: 100 nM, CHO cell membranes, [3H]oxytocin, values without parentheses, read-out: OT % inhibition @ 100% nM

Row | Structure (SMILES) | inhibition at 0.1 µM
1 | COc1cc(C(=O)N2Cc3ccc(C(=O)N4CCCN(C)CC4)n3Cc3ccccc32)ccc1-c1cccc2ccccc12 [Example 68, {10-[3-Methoxy-4-(1-naphthyl)benzoyl]-10,11-dihydro-5H-pyrrolo[2,1-c][1,4]benzodiazepin-3-yl}(4-methyl-1,4-diazepan-1-yl)methanone] | 64%
2 | COc1cccc(-c2ccc(C(=O)N3Cc4ccc(C(=O)NCCCN(C)C)n4Cc4ccccc43)cc2C)c1 [Example 74, N-[3-(Dimethylamino)propyl]-10-[(3′-methoxy-2-methyl[1,1′-biphenyl]-4-yl)carbonyl]-10,11-dihydro-5H-pyrrolo[2,1-c][1,4]benzodiazepine-3-carboxamide] | 45%
3 | COc1cc(-c2ccccc2C)c(Cl)cc1C(=O)N1Cc2ccc(C(=O)NCCCN(C)C)n2Cc2ccccc21 [Example 78, 10-[(6-Chloro-3-methoxy-2′-methyl[1,1′-biphenyl]-4-yl)carbonyl]-N-[3-(dimethylamino)propyl]-10,11-dihydro-5H-pyrrolo[2,1-c][1,4]benzodiazepine-3-carboxamide] | 62%
4 | COc1ccccc1-c1ccc(C(=O)N2Cc3ccc(C(=O)N[C@H]4CN5CCC4CC5)n3Cc3ccccc32)cc1C [Example 298, N-[(3R)-1-Azabicyclo[2.2.2]oct-3-yl]-10-[(2′-methoxy-2-methyl[1,1′-biphenyl]-4-yl)carbonyl]-10,11-dihydro-5H-pyrrolo[2,1-c][1,4]benzodiazepine-3-carboxamide] | 94%
5 | COc1ccccc1-c1ccc(C(=O)N2Cc3ccc(C(=O)N[C@H]4CN5CCC4CC5)n3Cc3ccccc32)cc1OC [Example 299, N-[(3R)-1-Azabicyclo[2.2.2]oct-3-yl]-10-[(2,2′-dimethoxy[1,1′-biphenyl]-4-yl)carbonyl]-10,11-dihydro-5H-pyrrolo[2,1-c][1,4]benzodiazepine-3-carboxamide] | 86%
6 | COc1cc(C(=O)N2Cc3ccc(C(=O)NCCCN(C)C)n3Cc3ccccc32)ccc1-c1ccccc1C [Example 77, N-[3-(Dimethylamino)propyl]-10-[(2-methoxy-2′-methyl[1,1′-biphenyl]-4-yl)carbonyl]-10,11-dihydro-5H-pyrrolo[2,1-c][1,4]benzodiazepine-3-carboxamide] | 65%
7 | Cc1cc(C(=O)N2Cc3ccc(C(=O)N[C@H]4CN5CCC4CC5)n3Cc3ccccc32)ccc1-c1ccccc1C(F)(F)F [Example 301, N-[(3R)-1-Azabicyclo[2.2.2]oct-3-yl]-10-{[2-methyl-2′-(trifluoromethyl)[1,1′-biphenyl]-4-yl]carbonyl}-10,11-dihydro-5H-pyrrolo[2,1-c][1,4]benzodiazepine-3-carboxamide] | 82%
8 | COc1ccccc1-c1ccc(C(=O)N2Cc3ccc(C(=O)N4CCCN(C)CC4)n3Cc3ccccc32)cc1OC [Example 69, {10-[(2,2′-Dimethoxy[1,1′-biphenyl]-4-yl)carbonyl]-10,11-dihydro-5H-pyrrolo[2,1-c][1,4]benzodiazepin-3-yl}(4-methyl-1,4-diazepan-1-yl)methanone] | 71%
9 | COc1cc(C(=O)N2Cc3ccc(C(=O)NCCCN(C)C)n3Cc3ccccc32)ccc1-n1c(C)ccc1C [Example 308, N-[3-(Dimethylamino)propyl]-10-[4-(2,5-dimethyl-1H-pyrrol-1-yl)-3-methoxybenzoyl]-10,11-dihydro-5H-pyrrolo[2,1-c][1,4]benzodiazepine-3-carboxamide] | 7%
10 | COc1cccc(-c2cc(OC)c(C(=O)N3Cc4ccc(C(=O)N5CCN(CCCN(C)C)CC5)n4Cc4ccccc43)cc2Cl)c1 [Example 252, {10-[(6-Chloro-3,3′-dimethoxy[1,1′-biphenyl]-4-yl)carbonyl]-10,11-dihydro-5H-pyrrolo[2,1-c][1,4]benzodiazepin-3-yl}{4-[3-(dimethylamino)propyl]-1-piperazinyl}methanone] | 72%
11 | COc1cc(-c2ccccc2C)c(Cl)cc1C(=O)N1Cc2ccc(C(=O)N[C@@H]3CN4CCC3CC4)n2Cc2ccccc21 [Example 297, N-[(3S)-1-Azabicyclo[2.2.2]oct-3-yl]-10-[(6-chloro-3-methoxy-2′-methyl-[1,1′-biphenyl]-4-yl)carbonyl]-10,11-dihydro-5H-pyrrolo[2,1-c][1,4]benzodiazepine-3-carboxamide] | 73%

Other lines, results leading:

Row | inhibition at 0.1 µM | Structure (SMILES)
12 | 18% | Cc1ccccc1-c1ccc(C(=O)N2Cc3ccc(C(=O)N4CCN(CCCN(C)C)CC4)n3Cc3ccccc32)cc1 [Example 249, {4-[3-(Dimethylamino)propyl]-1-piperazinyl}{10-[(2′-methyl[1,1′-biphenyl]-4-yl)carbonyl]-10,11-dihydro-5H-pyrrolo[2,1-c][1,4]benzodiazepin-3-yl}methanone]
13 | 87% | COc1cc(-c2ccccc2C)c(Cl)cc1C(=O)N1Cc2ccc(C(=O)N3CCN(CCCN(C)C)CC3)n2Cc2ccccc21 [Example 251, {10-[(6-Chloro-3-methoxy-2′-methyl[1,1′-biphenyl]-4-yl)carbonyl]-10,11-dihydro-5H-pyrrolo[2,1-c][1,4]benzodiazepin-3-yl}{4-[3-(dimethylamino)propyl]-1-piperazinyl}methanone]
14 | 22% | COc1cc(C(=O)N2Cc3ccc(C(=O)N4CCN(C(C)C)CC4)n3Cc3ccccc32)ccc1-n1c(C)ccc1C [Example 319, {10-[4-(2,5-Dimethyl-1H-pyrrol-1-yl)-3-methoxybenzoyl]-10,11-dihydro-5H-pyrrolo[2,1-c][1,4]benzodiazepin-3-yl}(4-isopropyl-1-piperazinyl)methanone]
15 | 68% | Cc1ccccc1-c1ccc(C(=O)N2Cc3ccc(C(=O)N4CCCN(C)CC4)n3Cc3ccccc32)cc1 [Example 65, {10-[(2′-Methyl[1,1′-biphenyl]-4-yl)carbonyl]-10,11-dihydro-5H-pyrrolo[2,1-c][1,4]benzodiazepin-3-yl}(4-methyl-1,4-diazepan-1-yl)methanone]
16 | 95% | COc1ccccc1-c1ccc(C(=O)N2Cc3ccc(C(=O)N[C@@H](Cc4c[nH]cn4)C(N)=O)n3Cc3ccccc32)cc1C [Example 288, N-[(1S)-2-Amino-1-(1H-imidazol-4-ylmethyl)-2-oxoethyl]-10-[(2′-methoxy-2-methyl[1,1′-biphenyl]4-yl)carbonyl]-10,11-dihydro-5H-pyrrolo[2,1-c][1,4]benzodiazepine-3-carboxamide]
17 | 72% | COc1cc(C(=O)N2Cc3ccc(C(=O)N(C)CCN(C)C)n3Cc3ccccc32)ccc1-n1c(C)ccc1C [Example 309, N-[2-(Dimethylamino)ethyl]-10-[4-(2,5-dimethyl-1H-pyrrol-1-yl)-3-methoxybenzoyl]-N-methyl-10,11-dihydro-5H-pyrrolo[2,1-c][1,4]benzodiazepine-3-carboxamide]
18 | 68% | COc1ccccc1-c1ccc(C(=O)N2Cc3ccc(C(=O)N4CCN(C)CC4)n3Cc3ccccc32)cc1OC [Example 56, {10-[(2,2′-Dimethoxy[1,1′-biphenyl]-4-yl)carbonyl]-10,11-dihydro-5H-pyrrolo[2,1-c][1,4]benzodiazepin-3-yl}(4-methyl-1-piperazinyl)methanone]
19 | 66% | COc1ccccc1-c1ccc(C(=O)N2Cc3ccc(C(=O)N4CCN(CCCN(C)C)CC4)n3Cc3ccccc32)cc1OC [Example 254, {10-[(2,2′-Dimethoxy[1,1′-biphenyl]-4-yl)carbonyl]-10,11-dihydro-5H-pyrrolo[2,1-c][1,4]benzodiazepin-3-yl}{4-[3-(dimethylamino)propyl]-1-piperazinyl}methanone]
20 | 81% | COc1cccc(-c2ccc(C(=O)N3Cc4ccc(C(=O)N5CCN(C)CC5)n4Cc4ccccc43)cc2C)c1 [Example 51, {10-[(3′-Methoxy-2-methyl[1,1′-biphenyl]-4-yl)carbonyl]-10,11-dihydro-5H-pyrrolo[2,1-c][1,4]benzodiazepin-3-yl}(4-methyl-1-piperazinyl)methanone]
21 | 86% | COc1ccccc1-c1ccc(C(=O)N2Cc3ccc(C(=O)N[C@@H](Cc4c[nH]cn4)C(N)=O)n3Cc3ccccc32)cc1OC [Example 286, N-[(1S)-2-Amino-1-(1H-imidazol-4-ylmethyl)-2-oxoethyl]-10-[(2,2′-dimethoxy[1,1′-biphenyl]-4-yl)carbonyl]-10,11-dihydro-5H-pyrrolo[2,1-c][1,4]benzodiazepine-3-carboxamide]
22 | 97% | COc1cc(C(=O)N2Cc3cccn3Cc3ccccc32)ccc1-c1ccccc1C(F)(F)F [Example 19D, (10,11-Dihydro-5H-pyrrolo[2,1-c][1,4]benzodiazepin-10-yl)-(2-methoxy-2′-trifluoromethyl-[1,1′-biphenyl]-4-yl)-methanone]
23 | 32% | COc1cc(C(=O)N2Cc3ccc(C(=O)N4CCC(N5CCCC5)CC4)n3Cc3ccccc32)ccc1-n1c(C)ccc1C [Example 313, {10-[4-(2,5-Dimethyl-1H-pyrrol-1-yl)-3-methoxybenzoyl]-10,11-dihydro-5H-pyrrolo[2,1-c][1,4]benzodiazepin-3-yl}[4-(1-pyrrolidinyl)-1-piperidinyl]methanone]
24 | 78% | COc1cccc(-c2cc(OC)c(C(=O)N3Cc4ccc(C(=O)N5CCN(C)CC5)n4Cc4ccccc43)cc2Cl)c1 [Example 54, {10-[(6-Chloro-3,3′-dimethoxy[1,1′-biphenyl]-4-yl)carbonyl]-10,11-dihydro-5H-pyrrolo[2,1-c][1,4]benzodiazepin-3-yl}(4-methyl-1-piperazinyl)methanone]

— patent publication US7109193B2, “Tricyclic diazepines tocolytic oxytocin receptor antagonists” (Wyeth, priority 2001, dated 2006)
